Reference: US20050107456A1, “Substituted pyrazolines for use as pesticides” (priority 2002, published 2005)
Like-named read-outs stand apart in the source and are kept apart here.

Legend:
[1] = logP determination by HPLC on a reversed-phase column (EEC Directive 79/831 Annex V.A8); assay type: physicochemical; settings: for chromatographic logP: read-out: logP (pH2)
Procedure: The logP values given in the Preparation Examples and the tables above are determined in accordance with EEC Directive 79/831 Annex V.A8 by HPLC (High Performance Liquid Chromatography) on a reversed-phase column (C 18). Temperature: 43° C.
The determination is carried out in the acidic range at pH 2.3 using the mobile phases 0.1% aqueous phosphoric acid and acetonitrile; linear gradient from 10% acetonitrile to 90% acetonitrile.
Calibration is carried out using unbranched alkan-2-ones (having 3 to 16 carbon atoms) with known logP values (determination of the logP values by the retention times using linear interpolation between two successive alkanones).

[2] = test system: caterpillars of the army worm (Spodoptera frugiperda); assay: Spodoptera frugiperda test; assay type: in vivo; settings: active compound concentration 500 ppm, after 7 days, dipped cabbage leaves
Procedure: (§1) Spodoptera Frugiperda Test Solvent: 7 parts by weight of dimethylformamide Emulsifier: 2 parts by weight of alkylaryl polyglycol ether To produce a suitable preparation of active compound, 1 part by weight of active compound is mixed with the stated amounts of solvent and emulsifier, and the concentrate is diluted with emulsifier-containing water to the desired concentration. Cabbage leaves (Brassica oleracea) are treated by being dipped into the preparation of active compound of the desired concentration and are populated with caterpillars of the army worm (Spodoptera frugiperda) while the leaves are still moist. After the desired period of time, the kill in % is determined. 100% means that all caterpillars have been killed; 0% means that none of the caterpillars have been killed.

[3] = test system: larvae of the mustard beetle (Phaedon cochleariae); assay: Phaedon larvae test; assay type: in vivo; settings: active compound concentration 500 ppm, after 7 days, dipped cabbage leaves
Procedure: as §1, with “Phaedon Larvae Test” for “Spodoptera Frugiperda Test”, “with larvae” for “with caterpillars”, “the mustard beetle (Phaedon cochleariae)” for “the army worm (Spodoptera frugiperda)”, “all beetle larvae” for “all caterpillars”, “the beetle larvae” for “the caterpillars”

[4] = reversed-phase C18 HPLC column, HPLC, reversed-phase C 18, 43° C., acidic range pH 2.3, 0.1% aqueous phosphoric acid/acetonitrile
[5] = HPLC, reversed-phase C 18, 43° C., acidic range pH 2.3, 0.1% aqueous phosphoric acid/acetonitrile

Compound | chromatographic logP [1, 4] | kill in % [2] | further results
CC(C)(C)c1nnn(-c2ccc(N)cc2)n1 [4-(5-tert-butyltetrazol-2-yl)aniline] | 2.27 |  | 
CC(C)(C)c1noc(-c2ccc(NC(=O)N3CC(n4cc(C#N)cn4)C(c4ccc(Cl)cc4)=N3)cc2)n1 (stereo not drawn) [Compound 3, N-[4-(3-tert-butyl[1,2,4]oxadiazol-5-yl)-phenyl]-3-(4-chlorophenyl)-4-(4-cyanopyrazol-1-yl)-4,5-dihydro-1-pyrazolecarbox-amide] |  | 100% | logP (pH2) ([1]; pH 2.3): 4.38
N#Cc1cnn(C2CN(C(=O)Nc3ccc(-c4ccccc4)cc3)N=C2c2ccc(Cl)cc2)c1 (stereo not drawn) [Compound 1, N-(4-phenyl)-3-(4-chlorophenyl)-4-(4-cyanopyrazol-1-yl)-4,5-dihydro-1-pyrazolecarboxanilide] | 4.11 | 100% | 
CC(C)(C)c1noc(-c2ccc(N)cc2)n1 [4-(3-tert-butyl[1,2,4]oxadiazol-5-yl)aniline] | 2.54 |  | 
N#Cc1cnn(C2CNN=C2c2ccc(Cl)cc2)c1 (stereo not drawn) [3-(4-chlorophenyl)-4-(4-cyanopyrazol-1-yl)-4,5-dihydro-1H-pyrazole] | 2.11 |  | 
CC(C)(C)c1nnn(-c2ccc(NC(=O)N3CC(n4cc(C#N)cn4)C(c4ccc(Cl)cc4)=N3)cc2)n1 (stereo not drawn) [Compound 5, N-[4-(5-tert-butyltetrazol-2-yl)phenyl]-3-(4-chlorophenyl)-4-(4-cyanopyrazol-1-yl)-4,5-dihydro-1-pyrazolecarboxamide] | 4.27 |  | 
CC(C)(C)c1nc(-c2ccc(N)cc2)no1 [4-(5-tert-butyl[1,2,4]oxadiazol-3-yl)aniline] | 2.31 |  | 
CC(C)(C)c1nc(-c2ccc(NC(=O)N3CC(n4cc(C#N)cn4)C(c4ccc(Cl)cc4)=N3)cc2)no1 (stereo not drawn) [Compound 2, N-[4-(5-tert-butyl[1.2.4]oxadiazol-3-yl)-phenyl]-3-(4-chlorophenyl)-4-(4-cyanopyrazol-1-yl)-4,5-dihydro-1-pyrazolecarboxamide] |  | 100% | kill in % [3]: 100%; logP (pH2) ([1]; pH 2.3): 4.33
N#Cc1cnn(CC(=O)c2ccc(Cl)cc2)c1 [2-(4-cyanopyrazol-1-yl)-4′-chloroacetophenone] |  |  | chromatographic logP [1, 5]: 2.2
CC(C)(C)n1nnc(-c2ccc(N)cc2)n1 [4-(2-tert-butyltetrazol-5-yl)aniline] | 1.69 |  | 
4-(5-tert-butyltetrazol-2-yl)nitrobenzene |  |  | logP (pH2) [1, 5]: 2.20
CC(C)(C)n1nnc(-c2ccc(NC(=O)N3CC(n4cc(C#N)cn4)C(c4ccc(Cl)cc4)=N3)cc2)n1 (stereo not drawn) [Compound 4, N-[4-(2-tert-butyltetrazol-5-yl)phenyl]-3-(4-chlorophenyl)-4-(4-cyanopyrazol-1-yl)-4,5-dihydro-1-pyrazolecarboxamide] | 3.91 | 100% | kill in % [3]: 100%
